Entries after “also recorded” stand apart in the source; their conditions may differ. Ends that are not written are not given here. Peptide text beside a SMILES is read from it.
Experiments:
[1] = test system: human epidermal melanocyte (HEM); experiment: Cell viability, MTT assay, HEMs; assay type: cell-based; details: FIG. 6b
Description: (§1) Cell viability was measured by using a 3-(4,5-dimethylthiazol-2-yl)-2,5-diphenyltetrazolium bromide (MTT) assay. B16-F10 cell lines were treated with test peptides at various concentrations for 72 hours. The cells were washed with PBS and cultured in 100 μl of culture fluid, to which 1 mg/mL of MTT (Amresco, Solon, Ohio, USA) was added, for three hours. After that, the culture fluid was removed therefrom and formazan accumulated inside the cells was extracted with 100 μl of dimethyl sulfoxide (DMSO). Absorbance of the extracted solution was measured at 595 nm by using SPECTROstar Nano microplate reader (BMG LABTECH GmbH, Ortenberg, Germany).
(§2) After the B16-F10 cells and HEM were treated with the peptides of Examples 1 to 4 according to the same method, cell viability was measured and the results thereof were summarized in FIGS. 1b, 2b, 3b, 4b, 5b, 6b and 7a respectively.

B16-F10 cells [2] = experiment: Melanogenesis inhibitory activity (melanin content) in B16-F10 cells stimulated with α-MSH; assay type: cell-based, murine; details: for melanogenesis inhibitory effect of short peptides (melanin content): peptide 30 μM to 100 μM, FIG. 4a; for melanogenesis inhibitory effect of glycine derivatives (melanin content): various concentrations, FIG. 5a
Description: (§3) Cells were cultured in a humidified incubator at 37° C. and 5% CO2. Murine melanoma B16-F10 cell lines were cultured in Dulbecco' Modified Eagle Medium containing 10% fetal bovine serum and antibiotics (100 U/mL of penicillin, 0.1 mg/mL of streptomycin and 0.25 μg/mL of amphotericin B), which were purchased from the American Type Culture Collection (Manassas, Va., USA). A human epidermal melanocyte (HEM), derived from a pigmented human neonatal foreskin, was purchased from Cascade Biologics (Portland, Oreg., USA) and cultured in medium 254 containing human melanocyte growth supplements (Cascade Biologics) and antibiotics.
(§4) A melanin formation inhibitory effect of the peptide to be analyzed was confirmed by using B16-F10 cell lines and HEM. The B16-F10 cells were treated with test peptides at various concentrations and stimulated for 72 hours by using 100 nM of α-MSH. Hexapeptide B6 (Phe-Ser-His-His-Leu-Gly-NH2) (SEQ ID NO: 20), p-coumaric acid and arbutin were used as a control group. A level of extracellular melanin was measured by using a conditioned medium in which cells were previously cultured. Intracellular melanin was extracted at 60° C. for 60 minutes by using 1.0 M NaOH. A content of melanin was spectroscopically measured by measuring absorbance at 475 nm and resultant values were normalized with regard to a total protein content of cells by using Bio-Rad DC assay.

[3] = test system: human epidermal melanocyte (HEM); experiment: Melanogenesis inhibitory activity (intracellular and extracellular melanin) in HEMs stimulated with α-MSH; assay type: cell-based; details: FIG. 6a
Description: as §3
as §4, with “assay. […]” for “assay.”

B16-F10 cells [4] = experiment: Cell viability, MTT assay, B16-F10 cells; assay type: cell-based, murine; details: up to 300 μM, FIG. 7a
Description: as §1, §2

tyrosinase (TYR) [5] = experiment: TYR activity assay in cell-free extract of treated B16-F10 cells; assay type: cell-based, murine; details: treated 60 minutes, then 100 nM α-MSH 24 hours, FIG. 8a
Description: B16-F10 cells were treated with glycinamide-HCl for 60 minutes and stimulated for 24 hours by using 100 nM of α-MSH. The cells were dissolved in 10 mM of cold Tris-HCl buffer solution (pH 7.4) containing 120 mM of sodium chloride, 25 mM of potassium chloride, 2.0 mM of ethylene glycol tetraacetic acid, 1.0 mM of ethylenediaminetetraacetic acid, 0.5% triton X-100, protease inhibitor cocktail (Roche, Mannheim, Germany). Cytolysate was centrifuged at 13,000×g at 4° C. for 15 minutes to obtain a cell-free extract therefrom. TYR activity was measured by using L-tyrosine and L-3,4-dihydroxyphenylalanine. A reaction mixture (200 μL) includes 100 mM of sodium phosphate (pH 6.8), 1.0 mM of L-tyrosine, 42 μM of L-3,4-dihydroxy phenylalanine and a cell-free extract (40 μg of protein), which was cultured at 37° C. A change in absorbance was measured at 475 nm by using Spectrostar Nano microplate reader.

tyrosinase (TYR) [6] = experiment: Western blotting, TYR protein level in B16-F10 cells; assay type: cell-based, murine; details: both in the presence and in the absence of α-MSH, FIG. 8b
Description: (§5) Western blotting was performed as described in a document [Study on phenolic compounds and novel peptides inhibiting UVB- and PM10-induced MMP1 expression and melanogenesis in skin cells. PhD Thesis 2017. Kyungpook National University, Korea]. B16-F10 cells were dissolved in 10 mM of cold Tris-HCl buffer solution (pH 7.2) containing 150 mM of NaCl, 5 mM of EDTA, 0.1% sodium dodecyl sulfate (SDS), 1% triton X-100, 1% deoxycholate, 1 mM of phenylmethylsulphonyl fluoride and protease inhibitor cocktail (Roche). A part of cytolysate (30 μg of protein) was mixed with Laemmli sample buffer, then heated at 95° C. for five minutes to be denaturalized, and then was subject to electrophoresis in 10% SDS-polyacrylamide gel. After the electrophoresis, protein was transferred from gel to polyvinylidene difluoride membrane (Amersham Pharmacia, Little Chalfont, UK). Primary antibodies for TYR, TYRP1, DCT, MITF and @-actin were purchased from Santa Cruz Biotechnology (Santa Cruz, Calif., USA). Primary antibodies for CREB, phospho-CREB (Ser133), extracellular signal-regulated kinase (ERK) and phospho-ERK (Thr202/Tyr204) were purchased from Cell Signaling (located in Danvers, Mass., USA). […] A protein band was visualized by using picoEPD Western Reagent kit (Elpis-Biotech, Daejeon, South Korea), and a depth of image was analyzed by using National Institutes of Health ImageJ program.

[7] = test system: tyrosinase-related protein 1 (TYRP1); experiment: Western blotting, TYRP1 protein level in B16-F10 cells; assay type: cell-based, murine; details: both in the presence and in the absence of α-MSH, FIG. 8b
Description: as §5

[8] = test system: dopachrometautomerase (DCT); experiment: Western blotting, DCT protein level in B16-F10 cells; assay type: cell-based, murine; details: both in the presence and in the absence of α-MSH, FIG. 8b
Description: as §5

[9] = test system: cAMP-responsive element binding protein (CREB); experiment: Western blotting, phosphorylation of CREB in B16-F10 cells; assay type: cell-based, murine; details: stimulated with α-MSH, FIG. 9a
Description: as §5, with “program. […]” for “program.”

[10] = test system: extracellular signal-regulated kinase (ERK); experiment: Western blotting, phosphorylation of ERK in B16-F10 cells; assay type: cell-based, murine; details: stimulated with α-MSH, FIG. 9a
Description: as §5, with “program. […]” for “program.”

[11] = test system: microphthalmia-associated transcription factor (MITF); experiment: Western blotting, MITF protein level in B16-F10 cells; assay type: cell-based, murine; details: stimulated with α-MSH, FIG. 9b
Description: as §5, with “program. […]” for “program.”

For `NC(=O)CNC(=O)[C@@H](N)Cc1c[nH]c2ccccc12` [F1, Trp-Gly-NH2] (H-Trp-Gly-NH2), the “HEMs cell viability / cytotoxicity” value [1] was “almost no cytotoxicity”.
With Phe-Trp-Gly-NH2 [E5] the “melanogenesis inhibitory effect of short peptides (melanin content)” value (B16-F10 cells [2]; 100 nM α-MSH, 72 hours) was “melanogenesis inhibitory activity higher than that of other tripeptides” and the “increase in content of intracellular and extracellular melanins in HEMs” value [3] was “weakened”.
In the case of `Cl.NCC(N)=O` [glycinamide-HCl], the “level of intracellular and extracellular melanins” value (B16-F10 cells [2]; 25-100 μM, cells stimulated with α-MSH, FIG. 7b) is reported as “reduced”, the “cytotoxicity in B16-F10 cells” value (B16-F10 cells [4]) is reported as “did not cause any cytotoxicity” and the “TYR activity increased by α-MSH” value (tyrosinase (TYR) [5]) is reported as “significantly weakened”. The “protein level of TYR” value (tyrosinase (TYR) [6]) was “significantly reduced”, the “protein level of TYRP1” value [7] was “significantly reduced” and the “protein level of DCT” value [8] was “significantly reduced”. The “phosphorylation of CREB” value [9] was “inhibited”, the “phosphorylation of ERK” value [10] was “did not affect” and the “level of MITF expression increased by α-MSH” value [11] was “weakened”.
With Leu-Trp-Gly-NH2 [E6] the “melanogenesis inhibitory effect of short peptides (melanin content)” value (B16-F10 cells [2]; 100 nM α-MSH, 72 hours) was “melanogenesis inhibitory activity higher than that of other tripeptides”.
For `N=C(N)NCCC[C@H](N)C(=O)N[C@@H](Cc1ccccc1)C(=O)N[C@@H](Cc1c[nH]c2ccccc12)C(=O)NCC(N)=O` [D3, Arg-Phe-Trp-Gly-NH2] (H-RFWG-NH2), the “HEMs cell viability / cytotoxicity” value [1] was “almost no cytotoxicity”.
With `NCC(=O)O` [free glycine, glycine, reference compound] the “melanogenesis inhibitory effect of glycine derivatives (melanin content)” value (B16-F10 cells [2]; 100 nM α-MSH, 72 hours) was “no activity”.
With `NCC(N)=O` [G1, glycinamide] the “melanogenesis inhibitory effect of glycine derivatives (melanin content)” value (B16-F10 cells [2]; 100 nM α-MSH, 72 hours) was “maintains anti-melanogenesis activity”, the “increase in content of intracellular and extracellular melanins in HEMs” value [3] was “weakened” and the “HEMs cell viability / cytotoxicity” value [1] was “almost no cytotoxicity”.
For “Phe-Ser-His-His-Leu-Gly-NH2 (FSHHLG-NH2) [Hexa-peptide B6, reference compound]”, the “melanogenesis inhibitory effect of individual tetrapeptides (melanin content)” value (B16-F10 cells [2]; peptide 30 μM and 100 μM, 100 nM α-MSH, 72 hours, FIG. 2a) was “showed a melanogenesis inhibitory effect at 100 μM only”.
In the case of Arg-Trp-Gly-NH2 [E7], the “melanogenesis inhibitory effect of short peptides (melanin content)” value (B16-F10 cells [2]; 100 nM α-MSH, 72 hours) is reported as “melanogenesis inhibitory activity higher than that of other tripeptides”.
With `CC(C)C[C@H](NC(=O)[C@@H](N)CCCNC(=N)N)C(=O)N[C@@H](Cc1c[nH]c2ccccc12)C(=O)NCC(N)=O` [D5, Arg-Leu-Trp-Gly-NH2] (H-RLWG-NH2) the “HEMs cell viability / cytotoxicity” value [1] was “almost no cytotoxicity”.
With Phe-Arg-Trp-Gly (FRWG-NH2) [D9] the “melanogenesis inhibitory activity compared with p-coumaric acid and arbutin” value (B16-F10 cells [2]; peptide 10-30 μM, 100 nM α-MSH, 72 hours, molar comparison, FIG. 3a) was “melanogenesis inhibitory activity at a concentration lower than that of p-coumaric acid and arbutin; also recorded: the most powerful melanogenesis inhibitory effect”.
